Measured values: patent publication US7835013B2, “Interferometric detection system and method” (Vanderbilt University, priority 2007, dated 2010)
Like-named read-outs stand apart in the source and are kept apart here.

Tests used:
Calmodulin (CaM) = target: T1, Calmodulin (CaM) (Homo sapiens, UniProt P0DP23); experiment: BSI stop-flow label-free homogeneous binding to Calmodulin; details: for Kd: 5 μM CaM, 12.5-100 μM Ca^2+, pH 7.5, 25° C.
T1 construct: purchased Sigma, St. Louis, Mo

Calmodulin = Calmodulin (Homo sapiens, UniProt P0DP23); details: read-out: published Kd Calmodulin-calcium ion; cited from earlier work

**Q.** Which results are given for [Ca+2] [Ca^2+]?
**A.** control: change in signal above that observed in the absence of excess EGTA (Calmodulin (CaM); 5 μM CaM and 100 μM Ca^2+, both with excess EGTA (400 μM)): < 3%; Kd (Calmodulin (CaM); read-out: Kd CaM-Ca^2+ from kinetic analysis (single exponential, least squares)): 3.36 µM; Kd (Calmodulin (CaM); read-out: Kd CaM-Ca^2+ from steady-state values, Prism software): 17.8 µM; Kd (Calmodulin): 1 to 10 µM
